A short description of series [1]: Specific gravity / density of aqueous glyphosate salt solutions and compositions (Mettler DA-300 meter). In kind it is physicochemical. The method, then:
Specific gravities are measured using a Mettler DA-300 Density/Specific Gravity Meter.
In a 1 liter glass vessel with magnetic stirrer are mixed 479.2 g glyphosate acid, technical grade (assay 96%), 166.0 g monoethanolamine and water to 1000 g. Reaction of the glyphosate acid with the monoethanolamine to form the MEA salt of glyphosate is exothermic. The reaction mixture is allowed to cool to room temperature. […] The density of the solution at 25° C. is […], thus the volume at 25° C. of 1000 g of this solution is 763 ml and the weight/volume concentration of glyphosate is 602 g a.e./l.
A series of aqueous solutions of glyphosate MEA salt, having a range of glyphosate a.e. concentrations, are prepared by the general procedure of Example 1. Specific gravity is measured for each solution.
[…] Cloud point is a measure of the maximum temperature at which a given aqueous composition containing a surfactant and a salt at defined concentrations forms a single-phase solution. Above the cloud point, the surfactant separates from the solution, initially as a hazy or cloudy dispersion, and, upon standing, as a distinct phase generally rising to the surface of the solution. Cloud point is determined by heating the composition until the solution becomes cloudy, and then allowing the composition to cool, with agitation, while its temperature is continuously monitored. A temperature reading taken when the solution clears is a measure of cloud point.

Series [2] can be described thus: Glyphosate a.e. weight/volume concentration of salt solution. The format is physicochemical. The conditions noted are these: for weight/volume concentration of glyphosate: 25° C., 46.0% by weight glyphosate a.e.; for glyphosate a.e. contained in 1 liter of solution: 30% a.e. by weight solution at 20° C.; for more glyphosate a.e. per liter than IPA salt solution: equal a.e. weight concentration (30% a.e. by weight, 20° C.). As to the method: Thus 1 liter of 30% a.e. by weight glyphosate potassium salt solution at 20° C. contains approximately 376 g glyphosate a.e./l, whereas 1 liter of 30% a.e. by weight glyphosate IPA salt solution at 20° C. contains approximately 347 g glyphosate a.e./l. In other words, at equal a.e. weight concentration, the potassium salt solution delivers about 8% more glyphosate a.e. per liter.
Similarly, 1 liter of 30% a.e. by weight glyphosate MEA salt solution at 20° C. contains approximately 371 g glyphosate a.e./l. Therefore at equal a.e. weight concentration, the MEA salt solution delivers about 7% more glyphosate a.e. per liter than an IPA salt solution.
In a 1 liter glass vessel with magnetic stirrer are mixed 479.2 g glyphosate acid, technical grade (assay 96%), 166.0 g monoethanolamine and water to 1000 g. Reaction of the glyphosate acid with the monoethanolamine to form the MEA salt of glyphosate is exothermic. The reaction mixture is allowed to cool to room temperature. The specific gravity (20/15.6° C.) of the resulting 62.6% by weight aqueous solution of glyphosate MEA salt, containing 46.0% by weight glyphosate a.e., is measured and found to be 1.32. The density of the solution at 25° C. is […], thus the volume at 25° C. of 1000 g of this solution is 763 ml and the weight/volume concentration of glyphosate is 602 g a.e./l.

The nature of series [3]: Viscosity of glyphosate salt solutions and compositions. The format is physicochemical. The note with it: 25° C.; 46% a.e. by weight solution without surfactant. The method, then:
Specific gravity (20/15.6° C.), viscosity at 25° C. and cloud point are recorded for each composition prepared as shown in Table 5. Cloud point is a measure of the maximum temperature at which a given aqueous composition containing a surfactant and a salt at defined concentrations forms a single-phase solution. Above the cloud point, the surfactant separates from the solution, initially as a hazy or cloudy dispersion, and, upon standing, as a distinct phase generally rising to the surface of the solution. Cloud point is determined by heating the composition until the solution becomes cloudy, and then allowing the composition to cool, with agitation, while its temperature is continuously monitored. A temperature reading taken when the solution clears is a measure of cloud point.
The maximum surfactant concentration attainable in practice in an aqueous concentrate composition containing glyphosate salt at 540 g a.e./l is compared for MEA and IPA salts. This is determined by adding a selected surfactant in increments to a 46% a.e. by weight aqueous solution of the glyphosate salt until the glyphosate weight/volume concentration falls from its initial level (565 g a.e./l for IPA salt, 602 g a.e./l for MEA salt) to 540 g a.e./l. […] When the maximum attainable surfactant concentration is reached, viscosity is measured at 25° C. […]

The conditions of series [4]: cited from earlier work.
The nature of series [5]: Maximum attainable surfactant concentration at 540 g a.e./l glyphosate. The format is physicochemical. As to the method:
The maximum surfactant concentration attainable in practice in an aqueous concentrate composition containing glyphosate salt at 540 g a.e./l is compared for MEA and IPA salts. This is determined by adding a selected surfactant in increments to a 46% a.e. by weight aqueous solution of the glyphosate salt until the glyphosate weight/volume concentration falls from its initial level (565 g a.e./l for IPA salt, 602 g a.e./l for MEA salt) to 540 g a.e./l. The study is conducted using either Surfactant A or Surfactant F of Table 3 above. When the maximum attainable surfactant concentration is reached, viscosity is measured at 25° C.

A further series is described as follows: Solubility in water. The format is physicochemical. The conditions noted are these: 20° C.; for solubility in pure water: weight of salt per weight of solution. The source says: Solubility in water of the potassium and MEA salts of glyphosate is believed not to be recorded in prior art but is readily determined by procedures familiar to those skilled in the art. Similarly, aqueous solutions of these salts at concentrations greater than about 40% by weight are believed not to have been specifically disclosed, thus any unusual or unpredicted properties of such solutions have not been publicly known. Concentrations expressed as percent by weight herein relate to parts by weight of salt or acid equivalent per 100 parts by weight of solution.
The solubility of the MEA salt is very similar to the solubility of the IPA salt.

Where [6] appears, read: 20/18.6° C., 30% a.e. by weight monobasic salt solution.
The mark [7] stands for this setting: 20/15.6° C., solution containing 46.0% by weight glyphosate a.e.
Setting [8] is: MEA salt solution 29.9% a.e. by weight, IPA salt solution 30.2%.

SMILES strings stand for the structures. Structures can show the parent of a compound that is named as a salt. Where only a bound is given, the exact number is not on record here.

With `C[S+](C)C.O=C([O-])CNCP(=O)(O)O` [trimethylsulfonium (TMS)], the “Specific Gravity” value in series [1] (setting [6]) is 1.1904.

Consider `CC(C)N.O=C(O)CNCP(=O)(O)O` [glyphosate IPA salt, isopropylammonium salt of glyphosate], for which the Specific Gravity in series [1] (setting [7]) is 1.24; in series [1] (setting [6]), 1.1554; in series [1] (setting [8]) it was 1.1566. For the same compound, the “weight/volume concentration of glyphosate” value in series [2] is 565 g a.e./l. Further, the “glyphosate a.e. contained in 1 liter of solution” value (from here on “glyphosate a.e. contained”) in series [2] is “approximately 347 g glyphosate a.e./l”. For the same compound, the viscosity in series [3] turned out to be 165 cPs. Further, in series [4] (only slightly higher than about 62% by weight), the “limit of solubility in aqueous solution” value was greater than 62 % by weight.

As for `CCCN.O=C(O)CNCP(=O)(O)O`, the “Specific Gravity” value in series [1] (setting [6]) is given as 1.1429.

Consider `O=C(O)CNCP(=O)(O)O` [glyphosate MEA salt, monoethanolammonium salt of glyphosate], for which, in series [5], the “surfactant concentration relative to the maximum attainable using the IPA salt” value is reported as “more than 2.5 times”. For the same compound, in series [1] (setting [7]), the Specific Gravity was found to be 1.32. In addition, the “Specific Gravity” value in series [1] (20/18.6° C., 30% a.e. by weight monobasic salt solution, listed as monoethanolammonium (MEA)) is given as 1.2357. The “specific gravity higher than that of 30.2% IPA salt solution” value in series [1] (29.9% a.e. by weight MEA salt solution) is 3.7%. In addition, the Specific Gravity in series [1] (setting [8]) is on record as 1.1991. Further, the “specific gravity compared with corresponding IPA salt solution” value in series [1] (all concentrations, FIG. 1) was “significantly higher”. In series [2], the “weight/volume concentration of glyphosate” value is on record as 602 g a.e./l, the “glyphosate a.e. contained” value is “approximately 371 g glyphosate a.e./l” and the “more glyphosate a.e. per liter than IPA salt solution” value is listed as “about 7%”. In addition, in series [3], the viscosity is reported as 88 cPs. Moreover, in “Solubility in water”, the “solubility in pure water as glyphosate acid equivalent” value is reported as “about 47 % a.e. by weight” and the “solubility in pure water” value is reported as “about 64 % by weight”. Besides, in the series “Solubility in water” (listed as MEA salt), the “solubility in pure water as glyphosate acid equivalent” value is “about 47 % a.e. by weight”.

Regarding `O=C(O)CNCP(=O)(O)O` [glyphosate potassium salt], the “Specific Gravity” value in series [1] (20/18.6° C., 30% a.e. by weight monobasic salt solution, potassium salt) came out at 1.2539. Moreover, in series [2] (potassium salt), the “glyphosate a.e. contained” value was “approximately 376 g glyphosate a.e./l” and the “more glyphosate a.e. per liter than IPA salt solution” value was “about 8%”. For the same compound, in the series “Solubility in water” (listed as potassium salt, potassium salt), the “solubility in pure water as glyphosate acid equivalent” value was “about 44 % a.e. by weight”. Further, in the series “Solubility in water” (potassium salt), the “solubility in pure water as glyphosate acid equivalent” value is on record as “about 44 % a.e. by weight” and the “solubility in pure water” value is “about 54 % by weight”.

In the case of `CN` [methylammonium], the “Specific Gravity” value in series [1] (setting [6]) was 1.1667.

`O=C(O)CNCP(=O)(O)O` [Glyphosate, N-phosphonomethylglycine]: the solubility in water in series [4] (25° C.) is reported as 1.16 % by weight.

As to `CCN.O=C(O)CNCP(=O)(O)O`, the “Specific Gravity” value in series [1] (setting [6]) is on record as 1.1599.

Consider `O=C(O)CNCP(=O)(O)O`, for which, in series [1] (setting [6]), the “Specific Gravity” value worked out at 1.1814.
